From patent publication US5232912A, “Anticoagulant peptides” (Merrell Dow Pharmaceuticals Inc., priority 1992, dated 1993)

Target: T1, bovine thrombin (Bos taurus, UniProt P00735)
T1 construct: A bovine thrombin solution (50 ul; 0.2 pmol; Sigma); purchased Sigma
Assay: Fibrin clot inhibition assay
Format: biochemical
Design: unit not given here
Settings: bovine thrombin 0.2 pmol, 10 minute incubation at 24° C., 1:10 diluted human plasma, turbidity (A405); two-fold delay of fibrin clot present at 15 minutes in the control well
Procedure: Human plasma was collected in EDTA (final concentration=0.1%) from a healthy volunteer who had fasted for 12 hours. The plasma was immediately sterilized by passing it through a 0.2 u filter membrane (Gelman) then aliquoted into 1 ml portions and stored at -20° C. In all assays, unsulfated Nα-acetylhirudin 45-65 was included as a control. A bovine thrombin solution (50 ul; 0.2 pmol; Sigma) was added to the wells of a 96 well microtiter plate (Falcon) containing 50 ul of a solution and a 10 minute incubation at 24° C., 100 ul of 1:10 diluted human plasma in 0.12M sodium chloride, 0.01M sodium phosphate, 0.01% sodium azide, 0.1% bovine serum albumin (pH 7.4) was added. The mixture was agitated for 20 seconds and the turbidity (A405) of the solution was measured at 5 minute intervals by an autoreader (Bio-Tek Model EL 309). Reported is the ability of a 5 uM concentration of peptide to delay two-fold the amount of fibrin clot present at 15 minutes in the control well.

SMILES | Fibrin Clot Inhibition
CC[C@H](C)[C@H](NC(=O)[C@@H]1Cc2ccccc2CN1C(=O)[C@H](CCC(=O)O)NC(=O)[C@H](Cc1ccc(O)cc1)NC(=O)CCC(=O)O)C(=O)N1CCC[C@H]1C(=O)N[C@@H](CCC(=O)O)C(=O)N[C@@H](CCC(=O)O)C(=O)N[C@@H](C)C(=O)N[C@@H](CC1CCCCC1)C(=O)N[C@H](CCC(=O)O)C(=O)O [Example 5, Suc-Tyr-Glu-Tiq-Ile-Pro-Glu-Glu-Ala-Cha-D-Glu-OH] | 0.82
CC[C@H](C)[C@H](NC(=O)[C@@H]1CCCCN1C(=O)[C@H](CCC(=O)O)NC(=O)[C@H](Cc1ccc(O)cc1)NC(=O)CCC(=O)O)C(=O)N1CCC[C@H]1C(=O)N[C@@H](CCC(=O)O)C(=O)N[C@@H](CCC(=O)O)C(=O)N[C@@H](C)C(=O)N[C@@H](CC1CCCCC1)C(=O)N[C@H](CCC(=O)O)C(=O)O [Example 2, Suc-Tyr-Glu-Pip-Ile-Pro-Glu-Glu-Ala-Cha-D-Glu-OH] | 1.9
CC[C@H](C)[C@H](NC(=O)[C@@H]1CCCN1C(=O)[C@H](CCC(=O)O)NC(=O)[C@H](Cc1ccc(O)cc1)NC(=O)CCC(=O)O)C(=O)N1CCCC[C@H]1C(=O)N[C@@H](CCC(=O)O)C(=O)N[C@@H](CCC(=O)O)C(=O)N[C@@H](C)C(=O)N[C@@H](CC1CCCCC1)C(=O)N[C@H](CCC(=O)O)C(=O)O [Example 1, Suc-Tyr-Glu-Pro-Ile-Pip-Glu-Glu-Ala-Cha-D-Glu-OH] | 0.88
CC[C@H](C)[C@H](NC(=O)[C@@H]1CCCN1C(=O)[C@H](CCC(=O)O)NC(=O)[C@H](Cc1ccc(O)cc1)NC(=O)CCC(=O)O)C(=O)N1Cc2ccccc2C[C@H]1C(=O)N[C@@H](CCC(=O)O)C(=O)N[C@@H](CCC(=O)O)C(=O)N[C@@H](C)C(=O)N[C@@H](CC1CCCCC1)C(=O)N[C@H](CCC(=O)O)C(=O)O [Example 6, Suc-Tyr-Glu-Pro-Ile-Tiq-Glu-Glu-Ala-Cha-D-Glu-OH] | 0.63
